Experimental data from US20090170886A1 (Pfizer Inc, priority 2005, published 2009).
Residue numbers refer to the chain shown, from its start. Like-named read-outs stand apart in the source and are kept apart here.

Tests used:
[1] = biological target: T1, hAR (human androgen receptor, baculovirus/Sf9 generated extracts) (Homo sapiens, UniProt P10275); test: AR Binding Assay (competitive binding with 3H-DHT tracer); conditions: 1 nM 3H-DHT, one hour at 4° C., mean of multiple tests
T1 construct: made in house; host or cells: baculovirus/Sf9 insect cells (crude extract)
T1 sequence (P10275 1-920): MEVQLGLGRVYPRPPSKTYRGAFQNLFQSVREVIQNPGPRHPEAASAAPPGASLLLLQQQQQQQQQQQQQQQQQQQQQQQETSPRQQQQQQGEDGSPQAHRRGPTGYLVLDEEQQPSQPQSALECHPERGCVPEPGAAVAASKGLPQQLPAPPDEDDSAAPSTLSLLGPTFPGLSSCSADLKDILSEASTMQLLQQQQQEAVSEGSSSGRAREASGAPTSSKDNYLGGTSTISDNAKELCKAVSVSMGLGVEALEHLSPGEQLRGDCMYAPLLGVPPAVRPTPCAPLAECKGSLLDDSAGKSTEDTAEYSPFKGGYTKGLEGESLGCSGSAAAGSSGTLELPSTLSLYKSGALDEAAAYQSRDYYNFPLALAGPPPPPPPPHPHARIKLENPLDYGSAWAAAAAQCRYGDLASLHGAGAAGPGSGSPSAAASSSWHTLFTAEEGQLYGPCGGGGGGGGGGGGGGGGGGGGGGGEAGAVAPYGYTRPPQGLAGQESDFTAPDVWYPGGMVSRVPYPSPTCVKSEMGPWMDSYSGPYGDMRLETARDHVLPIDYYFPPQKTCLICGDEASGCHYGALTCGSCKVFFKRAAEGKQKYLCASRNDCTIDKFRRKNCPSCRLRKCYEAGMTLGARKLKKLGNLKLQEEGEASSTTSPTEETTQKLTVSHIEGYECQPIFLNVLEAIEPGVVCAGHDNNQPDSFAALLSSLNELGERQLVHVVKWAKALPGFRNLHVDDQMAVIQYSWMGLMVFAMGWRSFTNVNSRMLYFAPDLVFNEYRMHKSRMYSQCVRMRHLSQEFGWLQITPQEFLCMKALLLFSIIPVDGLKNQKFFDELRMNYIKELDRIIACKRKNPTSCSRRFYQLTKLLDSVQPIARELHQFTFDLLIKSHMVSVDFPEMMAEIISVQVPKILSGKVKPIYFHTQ
How it was run: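 Compounds at decreasing concentrations were incubated with baculovirus/Sf9 hAR extract, hydroxylapatite and 1 nM ^3H-DHT for one hour at 4° C., then washed three times. The value is the compound concentration inhibiting half of maximum ^3H-DHT binding, reported as the mean of multiple tests.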

[2] = biological target: T2, androgen receptor in MDA-MB453-MMTV clone 54-19 cells (Homo sapiens, UniProt P10275); test: AR Antagonist Cell Assay (MMTV-luciferase reporter, DHT-induced); format: cell-based; conditions: MDA-MB453-MMTV clone 54-19, 100 pM DHT, 17 hr; mean of multiple tests
T2 sequence (P10275 1-920 Q868H): T1 sequence (P10275 1-920) with Q868H
How it was run: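 MDA-MB453 cells stably carrying an ARE-containing MMTV-luciferase reporter, in phenol red-free medium with 1% charcoal-treated serum, preincubated 30 min with compound (0.32-1000 nM), then stimulated with 100 pM DHT for 17 h at 37 °C. Luminescence read; percent inhibition of DHT fold induction.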

spinal BMD = conditions: after 7 years of treatment; cited from earlier work
[3] = hAR extract, read-out: AR Binding IC50

SMILES	IC50 [1, 3] [µM]	melting point [°C]	IC50 ([1]; AR Binding IC50, hAR extract) [µM]	IC50 [2] [µM]	increase in spinal BMD (spinal BMD) [%]
Cc1cccc(COc2ccc(C#N)cc2Cl)c1 [Example 40, 3-Chloro-4-(3-methyl-benzyloxy)-benzonitrile]	0.783	73 to 75			
CCCC(Oc1ccc(C#N)c(C(F)(F)F)c1)c1ccccn1 (stereo not shown) [Example 81, 4-(1-Pyridin-2-yl-butoxy)-2-trifluoromethyl-benzonitrile]			0.0543	0.28	
N#Cc1ccc(OC(Cc2ccccc2)c2ccccn2)cc1C(F)(F)F (stereo not shown) [Example 82, 4-(2-Phenyl-1-pyridin-2-yl-ethoxy)-2-trifluoromethyl-benzonitrile]	0.238			> 1	
CC(C)CC(Oc1ccc(C#N)c(C(F)(F)F)c1)c1ccccn1 (stereo not shown) [Example 83, 4-(3-Methyl-1-pyridin-2-yl-butoxy)-2-trifluoromethyl-benzonitrile]	0.119			> 1	
CCCCC(Oc1ccc(C#N)c(C(F)(F)F)c1)c1ccccn1 (stereo not shown) [Example 84, 4-(1-Pyridin-2-yl-pentyloxy)-2-trifluoromethyl-benzonitrile]	0.161			> 0.667	
Cc1cccc(C(CC(C)C)Oc2ccc(C#N)c(C(F)(F)F)c2)n1 (stereo not shown) [Example 85, 4-[3-Methyl-1-(6-methyl-pyridin-2-yl)-butoxy]-2-trifluoromethyl-benzonitrile]	0.167			> 1	
CCC(Oc1ccc(C#N)c(C(F)(F)F)c1)c1cccnc1 (stereo not shown) [Example 90, 4-(1-Pyridin-3-yl-propoxy)-2-trifluoromethyl-benzonitrile]	0.167			0.142	
N#Cc1ccc(OC(Cc2ccccc2)c2cccnc2)cc1C(F)(F)F (stereo not shown) [Example 91, 4-(2-Phenyl-1-pyridin-3-yl-ethoxy)-2-trifluoromethyl-benzonitrile]	0.116			0.342	
CCCC(Oc1ccc(C#N)c(C(F)(F)F)c1)c1cncc(OCOCCOC)c1 (stereo not shown) [Example 92]			0.074	> 0.934	
COCCOCOc1cncc(C(CC(C)C)Oc2ccc(C#N)c(C(F)(F)F)c2)c1 (stereo not shown) [Example 93, 4-{1-[5-(2-Methoxy-ethoxymethoxy)-pyridin-3-yl]-3-methyl-butoxy}-2-trifluoromethyl-benzonitrile]			0.098	0.202	
CCC(Oc1ccc(C#N)c(C(F)(F)F)c1)c1cncc(O)c1 (stereo not shown) [Example 94, 4-[1-(5-Hydroxy-pyridin-3-yl)-propoxy]-2-trifluoromethyl-benzonitrile]			0.075	0.202	
CCCC(Oc1ccc(C#N)c(C(F)(F)F)c1)c1cncc(O)c1 (stereo not shown) [Example 95, 4-[1-(5-Hydroxy-pyridin-3-yl)-butoxy]-2-trifluoromethyl-benzonitrile]			0.068	0.037	
NCCCC(O)(P(=O)(O)O)P(=O)(O)O [alendronate]					≤ 11
